# Reference: BindingDB's records for doi:10.1021/jm049581j (Purdue University, 2005)
# Biological target: T1, Gag-Pol polyprotein [489-587] (Human immunodeficiency virus 1, UniProt P04585)
# T1 construct: 489-587
# Test: Inhibitory concentration against human immunodeficiency virus-1 protease; (Dimerization inhibitor)
smiles,measurement,value
CC[C@@H](C)[C@H](NC(=O)[C@H](CCC(N)=O)NC(=O)C1CCCN1C(=O)CCCCCCCCCCCCCCC(=O)N[C@@H](CO)C(=O)N[C@H](C(=O)N[C@@H](CC(C)C)C(=O)N[C@@H](CC(N)=O)C(=O)N[C@@H](Cc1ccccc1)C(=O)O)[C@H](C)O)C(=O)N[C@H](C(=O)N[C@@H](CC(C)C)C(=O)N[C@@H](Cc1c[nH]c2ccccc12)C(=O)O)[C@H](C)O (some centres not stated),IC50,350 nM
same,Ki,220 nM
